Reference: PubChem BioAssay AID1963451 (Molecular Pharmacology Branch, DTP, NCI, 2024)

Tested on: 521955-158-R6-J3-PDC complex spheroid growth, % test/control
Assay: Anticancer human tumor 521955-158-R6-J3-PDC patient-derived pancreatic carcinoma cell line growth inhibition [Asc]
Conditions: for viability, T/C: stronger effect = lower value
Method in brief: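 Complex spheroids combining tumor cells with HUVEC endothelial cells and human MSCs, at 37 degrees C, 5% CO2; agents tested alone or combined, half-log dilutions from at or near clinical Cmax, or 10 microM if Cmax unknown.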

[1] = curve of first compound, second compound 0.0316 µM
[2] = curve of first compound, second compound 0.1 µM
[3] = curve of first compound, second compound 0.316 µM
[4] = curve of first compound, second compound 1 µM
[5] = curve of first compound, second compound 3.16 µM
[6] = curve of first compound, second compound 10 µM
[7] = second compound 0.0316 µM, first compound 0.0316 µM
[8] = second compound 0.0316 µM, first compound 0.1 µM
[9] = second compound 0.0316 µM, first compound 0.316 µM
[10] = second compound 0.0316 µM, first compound 1 µM
[11] = second compound 0.1 µM, first compound 0.0316 µM
[12] = second compound 0.1 µM, first compound 0.1 µM
[13] = second compound 0.1 µM, first compound 0.316 µM
[14] = second compound 0.1 µM, first compound 1 µM
[15] = second compound 0.316 µM, first compound 0.0316 µM
[16] = second compound 0.316 µM, first compound 0.1 µM
[17] = second compound 0.316 µM, first compound 0.316 µM
[18] = second compound 0.316 µM, first compound 1 µM
[19] = second compound 1 µM, first compound 0.0316 µM
[20] = second compound 1 µM, first compound 0.1 µM
[21] = second compound 1 µM, first compound 0.316 µM
[22] = second compound 1 µM, first compound 1 µM
[23] = second compound 3.16 µM, first compound 0.0316 µM
[24] = second compound 3.16 µM, first compound 0.1 µM
[25] = second compound 3.16 µM, first compound 0.316 µM
[26] = second compound 3.16 µM, first compound 1 µM
[27] = second compound 10 µM, first compound 0.0316 µM
[28] = second compound 10 µM, first compound 0.1 µM
[29] = second compound 10 µM, first compound 0.316 µM
[30] = second compound 10 µM, first compound 1 µM
[31] = second compound 0.0316 µM, first compound 0.00316 µM
[32] = second compound 0.0316 µM, first compound 0.01 µM
[33] = second compound 0.1 µM, first compound 0.00316 µM
[34] = second compound 0.1 µM, first compound 0.01 µM
[35] = second compound 0.316 µM, first compound 0.00316 µM
[36] = second compound 0.316 µM, first compound 0.01 µM
[37] = second compound 1 µM, first compound 0.00316 µM
[38] = second compound 1 µM, first compound 0.01 µM
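Also: spheroids exposed to compounds for 7 days.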
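For viability, T/C in this document: 100% = DMSO vehicle control wells.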

## O=C(c1cc(Cc2n[nH]c(=O)c3ccccc23)ccc1F)N1CCN(C(=O)C2CC2)CC1 + Cc1c(S(C)(=O)=O)c(-c2cc(F)cc(N3CCN(c4ccc(NS(=O)(=O)c5ccc(NC(CCN6CCC(C(=O)OCCCP(=O)(O)O)CC6)CSc6ccccc6)c(S(=O)(=O)C(F)(F)F)c5)cc4)CC3)c2)c(-c2ccc(Cl)cc2)n1C(C)C
[1]
  IC50: > 10000 nM
[2]
  IC50: > 10000 nM
[3]
  IC50: 786 nM
[4]
  IC50: < 31.6 nM
[5]
  IC50: < 31.6 nM
[6]
  IC50: < 31.6 nM
[7]
  viability, T/C: 77.8%
[8]
  viability, T/C: 86.6%
[9]
  viability, T/C: 87.5%
[10]
  viability, T/C: 83.3%
Second compound 0.0316 µM, first compound 3.16 µM
  viability, T/C: 75.6%
Second compound 0.0316 µM, first compound 10 µM
  viability, T/C: 76.8%
[11]
  viability, T/C: 88.4%
[12]
  viability, T/C: 71.9%
[13]
  viability, T/C: 64%
[14]
  viability, T/C: 62.6%
Second compound 0.1 µM, first compound 3.16 µM
  viability, T/C: 60.7%
Second compound 0.1 µM, first compound 10 µM
  viability, T/C: 54%
[15]
  viability, T/C: 56.4%
[16]
  viability, T/C: 61.7%
[17]
  viability, T/C: 52.6%
[18]
  viability, T/C: 48.6%
Second compound 0.316 µM, first compound 3.16 µM
  viability, T/C: 41.7%
Second compound 0.316 µM, first compound 10 µM
  viability, T/C: 35%
[19]
  viability, T/C: 41%
[20]
  viability, T/C: 34.6%
[21]
  viability, T/C: 31.1%
[22]
  viability, T/C: 30.1%
Second compound 1 µM, first compound 3.16 µM
  viability, T/C: 32.4%
Second compound 1 µM, first compound 10 µM
  viability, T/C: 27.2%
[23]
  viability, T/C: 23.3%
[24]
  viability, T/C: 19.1%
[25]
  viability, T/C: 17.1%
[26]
  viability, T/C: 19.3%
Second compound 3.16 µM, first compound 3.16 µM
  viability, T/C: 16%
Second compound 3.16 µM, first compound 10 µM
  viability, T/C: 13.4%
[27]
  viability, T/C: 14.4%
[28]
  viability, T/C: 15.4%
[29]
  viability, T/C: 11.7%
[30]
  viability, T/C: 13%
Second compound 10 µM, first compound 3.16 µM
  viability, T/C: 10%
Second compound 10 µM, first compound 10 µM
  viability, T/C: 9.06%

## COc1c(OCCCN2CCOCC2)ccc2c3n(c(=NC(=O)c4cnc(N)nc4)nc12)CCN3 + Cc1c(S(C)(=O)=O)c(-c2cc(F)cc(N3CCN(c4ccc(NS(=O)(=O)c5ccc(NC(CCN6CCC(C(=O)OCCCP(=O)(O)O)CC6)CSc6ccccc6)c(S(=O)(=O)C(F)(F)F)c5)cc4)CC3)c2)c(-c2ccc(Cl)cc2)n1C(C)C
[1]
  IC50: 222 nM
[2]
  IC50: 84.7 nM
[3]
  IC50: < 3.16 nM
[4]
  IC50: < 3.16 nM
[5]
  IC50: < 3.16 nM
[6]
  IC50: < 3.16 nM
[31]
  viability, T/C: 87.5%
[32]
  viability, T/C: 84.8%
[7]
  viability, T/C: 55.2%
[8]
  viability, T/C: 70.2%
[9]
  viability, T/C: 46.7%
[10]
  viability, T/C: 27.4%
[33]
  viability, T/C: 82.7%
[34]
  viability, T/C: 61%
[11]
  viability, T/C: 61.6%
[12]
  viability, T/C: 53.4%
[13]
  viability, T/C: 34%
[14]
  viability, T/C: 17.3%
[35]
  viability, T/C: 42%
[36]
  viability, T/C: 38.9%
[15]
  viability, T/C: 39%
[16]
  viability, T/C: 30.5%
[17]
  viability, T/C: 28%
[18]
  viability, T/C: 13%
[37]
  viability, T/C: 33.9%
[38]
  viability, T/C: 36.3%
[19]
  viability, T/C: 33.5%
[20]
  viability, T/C: 20.5%
[21]
  viability, T/C: 15.8%
[22]
  viability, T/C: 6.07%
Second compound 3.16 µM, first compound 0.00316 µM
  viability, T/C: 15.3%
Second compound 3.16 µM, first compound 0.01 µM
  viability, T/C: 18.2%
[23]
  viability, T/C: 16.9%
[24]
  viability, T/C: 11.9%
[25]
  viability, T/C: 4.31%
[26]
  viability, T/C: 2.03%
Second compound 10 µM, first compound 0.00316 µM
  viability, T/C: 17.6%
Second compound 10 µM, first compound 0.01 µM
  viability, T/C: 14.4%
[27]
  viability, T/C: 8.58%
[28]
  viability, T/C: 7.73%
[29]
  viability, T/C: 2.64%
[30]
  viability, T/C: 1.68%

## CNC(C)C(=O)NC1CN(S(=O)(=O)c2cccc(S(=O)(=O)N3CCC4CCC(C(=O)NC(c5ccccc5)c5ccccc5)N4C(=O)C(NC(=O)C(C)NC)C3)c2)CCC2CCC(C(=O)NC(c3ccccc3)c3ccccc3)N2C1=O (stereo not drawn)
Compound alone, run of 11/15/2022
  IC50: > 1000 nM
Curve of compound
  IC50: > 1000 nM

## O=C(c1ccc(F)c(F)c1Nc1ccc(I)cc1F)N1CC(O)([C@@H]2CCCCN2)C1 + CNC(C)C(=O)NC1CN(S(=O)(=O)c2cccc(S(=O)(=O)N3CCC4CCC(C(=O)NC(c5ccccc5)c5ccccc5)N4C(=O)C(NC(=O)C(C)NC)C3)c2)CCC2CCC(C(=O)NC(c3ccccc3)c3ccccc3)N2C1=O
Curve of first compound, second compound 0.00316 µM
  IC50: 569 nM
Curve of first compound, second compound 0.01 µM
  IC50: 261 nM
[1]
  IC50: 291 nM
[2]
  IC50: 503 nM
[3]
  IC50: 207 nM
[4]
  IC50: 139 nM
Second compound 0.00316 µM, first compound 0.00316 µM
  viability, T/C: 150%
Second compound 0.00316 µM, first compound 0.01 µM
  viability, T/C: 127%
Second compound 0.00316 µM, first compound 0.0316 µM
  viability, T/C: 120%
Second compound 0.00316 µM, first compound 0.1 µM
  viability, T/C: 105%
Second compound 0.00316 µM, first compound 0.316 µM
  viability, T/C: 60%
Second compound 0.00316 µM, first compound 1 µM
  viability, T/C: 36%
Second compound 0.01 µM, first compound 0.00316 µM
  viability, T/C: 87.4%
Second compound 0.01 µM, first compound 0.01 µM
  viability, T/C: 84.9%
Second compound 0.01 µM, first compound 0.0316 µM
  viability, T/C: 94.8%
Second compound 0.01 µM, first compound 0.1 µM
  viability, T/C: 74.9%
Second compound 0.01 µM, first compound 0.316 µM
  viability, T/C: 45.5%
Second compound 0.01 µM, first compound 1 µM
  viability, T/C: 30.7%
[31]
  viability, T/C: 88.7%
[32]
  viability, T/C: 88.6%
[7]
  viability, T/C: 90.1%
[8]
  viability, T/C: 72%
[9]
  viability, T/C: 49.2%
[10]
  viability, T/C: 31%
[33]
  viability, T/C: 117%
[34]
  viability, T/C: 94.3%
[11]
  viability, T/C: 102%
[12]
  viability, T/C: 83.8%
[13]
  viability, T/C: 65.7%
[14]
  viability, T/C: 28.7%
[35]
  viability, T/C: 72.6%
[36]
  viability, T/C: 76.1%
[15]
  viability, T/C: 72.5%
[16]
  viability, T/C: 61%
[17]
  viability, T/C: 43.6%
[18]
  viability, T/C: 29.9%
[37]
  viability, T/C: 78.9%
[38]
  viability, T/C: 70.9%
[19]
  viability, T/C: 95.4%
[20]
  viability, T/C: 56.5%
[21]
  viability, T/C: 39.5%
[22]
  viability, T/C: 27.4%
